Usually IC50 stands for the concentration at which inhibition is half-maximal. The low end stands for greater potency, the high end for weaker potency.

The target in one series is PDGFR-β (Homo sapiens (Human), UniProt P09619). The series can be described thus: Enzyme selectivity test (ELISA), PDGFR-β. Format: biochemical. As to the method:
(§1) 1) Enzyme reaction substrate Poly(Glu, Tyr) 4:1 was diluted to 20 μg/mL with potassium-free PBS (10 mM sodium phosphate buffer, 150 mM NaCl, pH 7.2-7.4), and the microtiter plate was coated with 125 μL/well and placed at 37° C. for 12-16 hours of reaction. The liquid in the well was discard. The plate was washed three times with T-PBS (potassium-free PBS containing 0.1% Tween-20, 200 μL/well), 5 minutes each time. The ELISA plate was dried in an oven at 37° C. for 1 to 2 hours.
(§2) 2) Reaction buffer (50 mM HEPES pH 7.4, 50 mM MgCl2, 0.5 mM MnCl2, 0.2 mM Na3VO4, 1 mM DTT) diluted ATP solution (49 μL) was added to each well, 1 μL of the compound to be tested was added to each well, and then 50 μL of DDR2 kinase domain recombinant protein diluted in the reaction buffer was added to start the reaction. Two control wells without ATP were set in each experiment. The plate placed on a shaker (100 rpm) at 37° C. for 1 hour of reaction. The liquid in the well was discarded and the plate was washed three times with T-PBS.
(§3) 3) Antibody PY99 dilution solution (the antibody was diluted 1:500 with T-PBS containing BSA 5 mg/mL) was added at 100 μL/well, and shaken on a shaker at 37° C. for 0.5 hour of reaction. The liquid in the well was discarded and the plate was washed three times with T-PBS.
(§4) 4) Horseradish peroxidase labeled goat anti-murine secondary antibody dilution solution (the antibody is diluted 1:2000 with T-PBS containing BSA 5 mg/ml) was added at 100 μL/well, and shaken on a shaker at 37° C. for 0.5 hour of reaction. The liquid in the well was discarded and the plate was washed three times with T-PBS.
(§5) 5) 2 mg/ml of OPD color developing solution [diluted with 0.1 M citric acid-sodium citrate buffer (pH=5.4) containing 0.03% H2O2] was added at 100 μL/well and reacted for 1 to 10 minutes at 25° C. in the dark.
(§6) 6) 2M H2SO4 was added at 50 μL/well to stop the reaction, and a tunable wavelength microplate reader VERSAmax was used for reading at a wavelength of 490 nm.
(§7) The IC50 value was obtained by four-parameter regression using the software that came with the microplate reader. […]
On the technique in general: ELISA stands for enzyme-linked immunosorbent assay.

Another series addresses EGFR (Homo sapiens (Human), UniProt P00533). Briefly: Enzyme selectivity test (ELISA), EGFR. Format: biochemical. As to the method: as §1, §2, §3, §4, §5, §6, §7
For series [1], the system named is mouse model of BLM-induced lung injury. The series can be described thus: Total number of cells and protein concentration in BALF. It is filed as in vivo. The following applies: mice; 30, 60, 90 mg/kg oral qd. As to the method:
1. The determination of the total number of cells in BALF. The collected BALF was centrifuged at 1000 rpm at 4° C. for 10 minutes, and 25× Cocktail was added to the supernatant and stored at −80° C. for protein concentration detection and subsequent cytokine determination. The cell pellet was resuspend in 50 μL of saline. The total number of cells in BALF was determined with a cell counting instrument.
2. Determination of protein concentration. In the experiment, the BCA protein concentration determination kit (Beyotime) was used to determine the concentration of total protein in BALF. The experimental steps are as follows:
a. 0.8 ml protein standard formulation solution was added to a tube of protein standard (20 mg BSA), dissolved and mixed thoroughly to prepare a protein standard solution at 25 mg/ml. After preparation, the protein standard solution can be used immediately and stored at −20° C.
b. An appropriate amount of 25 mg/ml of protein standard solution was taken and diluted to the target concentration of 0.5 mg/ml. Note that the protein sample and the standard should be diluted with the same solution, or the standard can be diluted with 0.9% NaCl or PBS. […]
d. The absorbance in the wavelength range of 540-595 nm was measured or a microplate reader was used to measure A562.
e. The protein concentration in the sample was calculated according to the sample volume used and standard curve.

For series [2], the system named is bronchial epithelial cell line Beas-2B. The series can be described thus: Cytotoxic activity test (MTS), Beas-2B. Format: cell-based, human. The following applies: 10 μM. As to the method: Experimental objective: The cytotoxic activity of compound S15 on bronchial epithelial cell line Beas-2B and lung fibroblast cell line MRC-5 was tested.
1) The human bronchial epithelial cell line Beas-2B and the human embryonic lung fibroblast cell line MRC-5 were collected, and inoculated at a certain density (about 5000-10000 cells) on a 96-well plate (the edge wells were filled with sterile water or PBS). A control was set on each plate (100 μL of culture medium was added);
2) The plate was incubated overnight at 37° C., 5% CO2. The plate was turned upside down and observed under the microscope.
3) The solutions of different concentrations of the compounds to be tested were added to each well, and a control well (culture medium and MTS solution with cells but no drug) and a blank well (without cells, medium and MTS solution) were set, 3 to 5 repetition wells were set for each group. Incubation was performed at 37° C. for 48-72 hours.
4) 10 μL/well of MTS/PMS (20:1, Promega Corp) solution was added to each well containing 100 μL of culture medium, and then the plate was gently shaken. The plate was incubated at 37° C. for 2 to 4 hours.
5) M5 microplate reader (Molecular Device, USA) was used to measure the absorbance of the solution at 490 nm. […]

In another series the target is ErbB2 (Homo sapiens (Human), UniProt P04626). The series can be described thus: Enzyme selectivity test (ELISA), ErbB2. Format: biochemical. As to the method:
as §1, §2, §3, §4, §5, §6, §7

Chain of ErbB2 (P04626 23-1255, species assumed): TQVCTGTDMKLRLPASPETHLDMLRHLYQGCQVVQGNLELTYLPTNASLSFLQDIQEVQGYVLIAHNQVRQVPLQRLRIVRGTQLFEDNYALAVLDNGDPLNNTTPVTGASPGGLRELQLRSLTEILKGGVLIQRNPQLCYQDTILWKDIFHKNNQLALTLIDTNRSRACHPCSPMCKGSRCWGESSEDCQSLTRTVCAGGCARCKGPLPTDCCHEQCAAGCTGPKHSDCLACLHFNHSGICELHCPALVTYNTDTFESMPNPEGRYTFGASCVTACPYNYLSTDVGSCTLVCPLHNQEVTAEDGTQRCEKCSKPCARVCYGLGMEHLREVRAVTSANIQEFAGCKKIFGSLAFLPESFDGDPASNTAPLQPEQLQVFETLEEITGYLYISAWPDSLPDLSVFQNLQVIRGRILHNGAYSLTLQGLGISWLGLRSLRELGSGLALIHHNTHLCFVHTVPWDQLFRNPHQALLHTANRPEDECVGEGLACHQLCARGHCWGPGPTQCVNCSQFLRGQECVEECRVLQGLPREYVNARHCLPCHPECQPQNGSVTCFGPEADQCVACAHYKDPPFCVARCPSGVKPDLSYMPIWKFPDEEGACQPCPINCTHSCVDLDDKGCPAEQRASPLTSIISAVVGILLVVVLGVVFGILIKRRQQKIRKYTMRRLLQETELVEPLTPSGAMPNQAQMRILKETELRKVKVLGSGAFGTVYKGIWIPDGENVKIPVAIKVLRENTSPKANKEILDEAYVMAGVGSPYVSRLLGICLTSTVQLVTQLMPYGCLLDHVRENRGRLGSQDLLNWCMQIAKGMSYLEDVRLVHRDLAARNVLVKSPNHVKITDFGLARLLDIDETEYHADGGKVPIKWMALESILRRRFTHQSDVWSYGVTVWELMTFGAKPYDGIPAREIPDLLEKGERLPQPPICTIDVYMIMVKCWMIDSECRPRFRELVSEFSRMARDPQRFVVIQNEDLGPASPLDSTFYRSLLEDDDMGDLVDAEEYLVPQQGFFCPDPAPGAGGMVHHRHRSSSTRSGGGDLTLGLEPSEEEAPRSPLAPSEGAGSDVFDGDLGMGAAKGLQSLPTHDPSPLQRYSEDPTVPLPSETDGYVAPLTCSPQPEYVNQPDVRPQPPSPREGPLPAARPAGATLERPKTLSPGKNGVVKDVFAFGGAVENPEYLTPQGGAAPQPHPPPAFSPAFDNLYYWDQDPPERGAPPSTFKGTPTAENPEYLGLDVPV
Chain of EGFR (P00533 25-1210, species assumed): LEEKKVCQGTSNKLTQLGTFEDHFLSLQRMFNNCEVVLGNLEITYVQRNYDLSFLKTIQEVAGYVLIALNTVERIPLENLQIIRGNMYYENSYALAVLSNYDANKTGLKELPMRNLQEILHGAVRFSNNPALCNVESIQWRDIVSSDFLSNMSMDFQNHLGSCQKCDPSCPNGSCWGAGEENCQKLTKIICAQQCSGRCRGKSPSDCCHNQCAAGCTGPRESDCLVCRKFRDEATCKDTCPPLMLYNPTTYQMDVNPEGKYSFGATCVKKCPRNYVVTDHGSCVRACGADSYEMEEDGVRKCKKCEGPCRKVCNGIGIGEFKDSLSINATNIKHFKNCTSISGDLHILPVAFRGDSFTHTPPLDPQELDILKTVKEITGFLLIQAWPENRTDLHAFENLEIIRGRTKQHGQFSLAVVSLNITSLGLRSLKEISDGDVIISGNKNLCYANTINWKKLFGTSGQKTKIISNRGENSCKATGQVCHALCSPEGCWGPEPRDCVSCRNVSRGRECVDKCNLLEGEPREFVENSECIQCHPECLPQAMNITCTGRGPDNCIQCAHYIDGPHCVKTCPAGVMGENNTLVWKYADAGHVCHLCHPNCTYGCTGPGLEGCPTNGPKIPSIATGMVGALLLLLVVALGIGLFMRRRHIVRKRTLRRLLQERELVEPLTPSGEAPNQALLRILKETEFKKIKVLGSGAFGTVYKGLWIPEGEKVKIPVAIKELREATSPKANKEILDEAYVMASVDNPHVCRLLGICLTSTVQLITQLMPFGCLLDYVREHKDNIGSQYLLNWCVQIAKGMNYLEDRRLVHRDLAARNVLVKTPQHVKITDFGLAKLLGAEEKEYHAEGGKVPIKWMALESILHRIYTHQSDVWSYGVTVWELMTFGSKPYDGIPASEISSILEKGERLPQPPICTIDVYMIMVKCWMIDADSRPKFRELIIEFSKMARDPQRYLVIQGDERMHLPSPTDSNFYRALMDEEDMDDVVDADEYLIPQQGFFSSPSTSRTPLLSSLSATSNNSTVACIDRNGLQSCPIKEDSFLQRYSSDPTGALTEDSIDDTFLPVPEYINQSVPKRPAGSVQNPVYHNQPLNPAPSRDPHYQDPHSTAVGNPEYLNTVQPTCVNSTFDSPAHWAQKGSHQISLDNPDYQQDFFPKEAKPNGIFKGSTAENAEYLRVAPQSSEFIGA
Chain of PDGFR-β (P09619 33-1106, species assumed): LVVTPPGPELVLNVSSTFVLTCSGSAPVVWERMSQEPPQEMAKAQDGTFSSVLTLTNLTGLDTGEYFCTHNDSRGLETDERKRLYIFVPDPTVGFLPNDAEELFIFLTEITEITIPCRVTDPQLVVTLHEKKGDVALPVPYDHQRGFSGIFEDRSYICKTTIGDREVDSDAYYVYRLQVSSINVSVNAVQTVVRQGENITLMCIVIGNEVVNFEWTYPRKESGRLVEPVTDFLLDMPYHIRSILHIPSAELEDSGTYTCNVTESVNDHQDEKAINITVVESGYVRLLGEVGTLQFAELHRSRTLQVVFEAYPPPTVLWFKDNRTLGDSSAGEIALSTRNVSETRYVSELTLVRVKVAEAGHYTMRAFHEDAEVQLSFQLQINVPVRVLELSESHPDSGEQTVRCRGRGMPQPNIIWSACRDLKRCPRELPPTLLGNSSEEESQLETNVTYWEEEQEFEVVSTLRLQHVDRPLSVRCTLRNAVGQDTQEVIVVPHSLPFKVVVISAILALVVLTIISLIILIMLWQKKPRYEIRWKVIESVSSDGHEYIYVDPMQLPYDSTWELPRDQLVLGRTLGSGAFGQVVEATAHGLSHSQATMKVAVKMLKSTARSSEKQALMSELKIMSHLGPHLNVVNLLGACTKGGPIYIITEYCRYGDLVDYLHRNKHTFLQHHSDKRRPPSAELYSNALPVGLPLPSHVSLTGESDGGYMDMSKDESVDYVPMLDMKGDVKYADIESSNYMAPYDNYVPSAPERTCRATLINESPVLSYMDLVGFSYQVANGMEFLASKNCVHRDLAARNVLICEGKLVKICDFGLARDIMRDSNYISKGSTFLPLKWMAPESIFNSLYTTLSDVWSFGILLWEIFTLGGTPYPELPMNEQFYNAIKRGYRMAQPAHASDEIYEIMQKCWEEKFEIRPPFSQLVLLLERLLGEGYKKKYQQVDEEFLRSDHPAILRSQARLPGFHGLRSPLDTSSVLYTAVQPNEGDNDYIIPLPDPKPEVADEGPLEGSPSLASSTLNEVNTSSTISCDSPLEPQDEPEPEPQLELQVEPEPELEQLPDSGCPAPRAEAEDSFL

In the case of `O=C(Nc1cccc(C(F)(F)F)c1)c1ccc(C2CC2)c(-c2ccc3nc(Nc4cnn(C5CC5)c4)ncc3c2)c1` [Compound S15, 4-cyclopropyl-3-(2-((1-cyclopropyl-1H-pyrazol-4-yl)amino)quinazolin-6-yl)-N-(3-(trifluoromethyl)phenyl)benzamide], the IC50 on PDGFR-β, against EGFR and on ErbB2 was greater than 1000 nM each time. Also, in series [1], the “protein concentration in BALF” value was “reduce the number of inflammatory cells and the concentration of related proteins in a dose-dependent manner”. Also, the “total number of inflammatory cells in BALF” value in series [1] is “reduce the number of inflammatory cells and the concentration of related proteins in a dose-dependent manner”. Further, the “cytotoxic activity on Beas-2B” value in series [2] was “almost no toxicity”.

(Values after patent US11655239B2 (SHANGHAI INSTITUTE OF MATERIAL MEDICA, CHINESE ACADEMY OF …, priority 2019, dated 2023).)
